PMC11862924, “Phenylpyrazoles as Inhibitors of the m^6A RNA-Binding Protein YTHDF2” (JACS Au, 2025)
Entries after “also recorded” stand apart in the source; their conditions may differ.

Key:
K562 cells [1] = assay: Cell cycle analysis by flow cytometry; type: cell-based, human; settings: 24 h
Experimental: K562 cells were seeded in 6-well plates (1.0 × 10^6 cells/well) and incubated overnight. Compounds of different concentrations were added to the 6-well plates. The cell cycle analysis kit (SIGMA-Aldrich, MAK344) was used after incubation for 24 h. The cells were detached with trypsin and washed with 2 mL of ice-cold cell cycle assay buffer for each sample. The supernatant was removed after centrifugation. The cells were fixed by adding 2 mL of ice-cold 70% ethanol (added dropwise while vortexing) to the cell pellet and then placed on ice for 30 min. The supernatant was removed after centrifuging at 400 × g for 5 min. Cells were washed with a cell cycle assay buffer (2 mL). Cells were resuspended completely in 500 μL of staining solution and were protected from light exposure. After being incubated at room temperature for 30 min, each sample was analyzed by flow cytometry (Sony Biotechnology Cell Sorter SH800S) with proper machine settings. The data were analyzed by cell sorter software (Sony Biotechnology).

[2] = Apoptosis assay (Annexin V/PI flow cytometry); type: cell-based, human; settings: human, K562 cells, read-out: Q3: viable
Experimental: (§1) K562 cells were seeded in six-well plates (1.0 × 10^6 cells/well) and incubated overnight. Compounds of different concentrations were added to the 6-well plates. After incubation for 24 h, the cells were detached with trypsin, washed twice with PBS and cold BioLegend’s cell staining buffer, and then, 5 μL of FITC Annexin V and 10 μL of propidium iodide solution were added. The cells were gently vortexed and incubated in a dark environment for 15 min at room temperature (25 °C). After adding 400 μL of Annexin V binding buffer to each tube, each sample was analyzed by flow cytometry (Sony Biotechnology Cell Sorter SH800S) with proper machine settings, and the data were analyzed by cell sorter software (Sony Biotechnology).

K562 cells [3] = assay: Apoptosis assay (Annexin V/PI flow cytometry); type: cell-based, human; settings: 24 h
Experimental: as §1

JAR cells = assay: Colony formation assay; type: cell-based, human; settings: n = 3 biological replicates
Experimental: JAR cells in the growth phase are prepared into cell suspensions by traditional digestion. A cell suspension (2 mL) with 200 cells per dish was seeded into a 6-well plate and incubated for 7 days. When visible colonies are present in the 6-well plate, the medium is discarded. The colonies are carefully soaked twice in PBS and dried in air. Cells were fixed with a 4% paraformaldehyde solution for 15 min. The paraformaldehyde solution was discarded, and Giemsa was used to stain the cells for 10 min. The dye solution was slowly washed away with Milli-Q water and then dried in air. The colony number and type were assessed manually under a microscope.

YTHDF2 [4] = biological target: T1, YTHDF2 (Homo sapiens, UniProt Q9Y5A9); assay: Electrophoretic mobility shift assay (EMSA); type: binding; settings: for inhibition of the YTHDF2–m6A RNA interaction in EMSA at 100 μM (in words): 100 μM compound, 250 nM YTHDF2, FAM-labeled m6A RNA; for concentration-dependent inhibition of YTHDF2–m6A RNA complex formation in EMSA (in words): 3.1–100 μM compound, 250 nM YTHDF2, 20 nM FAM-labelled m6A RNA
T1 construct: A YTHDF2 YTH domain construct (residues 383–553) was subcloned to a pOPIN plasmid; made in house; host or cells: Escherichia coli BL21(DE3)
T1 sequence (Q9Y5A9 383-553): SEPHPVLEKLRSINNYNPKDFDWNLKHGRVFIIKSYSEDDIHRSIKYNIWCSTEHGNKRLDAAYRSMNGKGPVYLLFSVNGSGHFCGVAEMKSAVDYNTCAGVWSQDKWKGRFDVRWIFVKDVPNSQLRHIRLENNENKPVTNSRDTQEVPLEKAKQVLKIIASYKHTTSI
Experimental: Compounds with different concentrations (3.1–100 μM) were incubated with 250 nM YTH-domain and 20 nM FAM-17mer-RNA in a buffer containing 20 mM HEPES, pH 8.2, 50 mM NaCl, 0.05% Triton X-100, and 5% v/v glycerol for 20 min at 4 °C. […] Gel imaging was performed in ChemiDoc MP (Bio-Rad), and Cy2/Alexa488 fluorescence was detected with a 1-min exposure time. Quantification of the gel image was performed by ImageJ.

YTHDF2 [5] = biological target: T1, YTHDF2; assay: nanoDSF thermal shift assay; type: binding; settings: for ΔTm at 5 µM: 5 μM compound; for ΔTm at 10 µM: 10 μM compound
Experimental: NanoDSF was measured on a NanoTemper instrument (Prometheus NT.48). YTHDF2 protein was used at a concentration of 5 μM and incubated with 50, 25, 10, and 5 μM compound in buffer (100 mM KPi, pH 7.0, 250 mM NaCl, 10% Glycerol) for 50 min, in which 0.1% DMSO was used as the reference. The heat rate was set to 1 °C per minute, measured in a range between 20 and 90 °C.

JAR = assay: CCK-8 proliferation assay, JAR; type: cell-based; settings: Homo sapiens; CCK-8 kit assay, triplicates, 72 h; read-out: Anti-proliferation activity against cancer cells (IC50), JAR
Experimental: (§2) The JAR, K562, HCT116, and MOLM13 cells were seeded in 96-well plates (3000 cells/well). After being cultured overnight, compounds were added together with the DMSO treatment (0.1%) as a control. After 72 h, CCK-8 solution (Vazyme, A311) was added, and the cells were incubated at 37 °C for 4 h. The absorbance was measured at 450 nm using a plate reader (TECAN Spark).

K562 = assay: CCK-8 proliferation assay, K562; type: cell-based; settings: Homo sapiens, CCK-8 kit assay, triplicates, 72 h, read-out: Anti-proliferation activity against cancer cells (IC50), K562
Experimental: as §2

HCT116 = assay: CCK-8 proliferation assay, HCT116; type: cell-based; settings: Homo sapiens, HCT-116; CCK-8 kit assay, triplicates, 72 h; read-out: Anti-proliferation activity against cancer cells (IC50), HCT116
Experimental: as §2

YTHDF2 YTH domain = biological target: T2, YTHDF2 YTH domain (Homo sapiens, UniProt Q9Y5A9); assay: AlphaScreen assay
T2 sequence (Q9Y5A9 383-553): T1 sequence (Q9Y5A9 383-553)
Experimental: Initially, the YTHDF2 YTH domain at different concentrations (0–2500 nM) was incubated with varied concentrations of RNA probes (5’-Bi-CGAm6ACUGUC–3′, IDT company) (5, 25, 50, and 100 nM) in 25 mM Hepes (pH 7.5), 100 mM NaCl, and 0.1% BSA to probe the optimal ratio between protein and RNA before the detection signal reached saturation. The AlphaScreen Histidine Detection Kit (Nickel Chelate) (PerkinElmer) 6760619 M and white 384-well Optiplates (PerkinElmer) were used. Anti-His receptor beads (PerkinElmer) (final concentration: 20 μg/mL) and streptavidin donor beads (final concentration: 20 μg/mL) were first added. The reaction mixture was then incubated at room temperature in a dark environment for 1 h to reach equilibrium. The optical signal was detected using a Tecan plate reader.
The inhibitory activities of the phenylpyrazoles (at 100 µM) against YTHDF2 binders
in the amplified luminescent proximity homogeneous assay (AlphaScreen).
phenylpyrazoles featuring a 2 -hydroxybenzoyl moiety R1 (blue) and a 4 -carboxyphenyl moiety
represent average values ± s.d.

Structure (SMILES) | cells in the G0/G1 phase (K562 cells [1]; 25 μM) [%] | cell cycle arrest (in words) (K562 cells [1]) | viability at 24 h, 25 µM ([2]; 25 μM) [%] | viability at 24 h, 50 µM ([2]; 50 μM) [%] | viability at 24 h, 100 µM ([2]; 100 μM) [%] | total apoptosis (Q2 + Q4) (K562 cells [3]; 25 μM) [%] | total apoptosis (Q2 + Q4) (K562 cells [3]; 50 μM) [%] | total apoptosis (Q2 + Q4) (K562 cells [3]; 100 μM) [%] | colony formation (in words) (JAR cells) | inhibition of the YTHDF2–m6A RNA interaction in EMSA at 100 μM (in words) (YTHDF2 [4]) | concentration-dependent inhibition of YTHDF2–m6A RNA complex formation in EMSA (in words) (YTHDF2 [4]) | ΔTm at 5 µM (YTHDF2 [5]) [°C] | ΔTm at 10 µM (YTHDF2 [5]) [°C] | ΔTm at 25 µM (YTHDF2 [5]; 25 μM compound) [°C] | IC50 (JAR) [µM] | IC50 (K562) [µM] | IC50 (HCT116) [µM] | inhibition at 100 μM in AlphaScreen (YTHDF2 YTH domain; 100 μM compound) [%] | inhibitory IC50 in AlphaScreen (in words) (YTHDF2 YTH domain; Figures S3 and S4)
O=C(O)c1ccc(-n2cc(C(=O)c3c(O)ccc4ccccc34)cn2)cc1 [CK-75] | > 70 | induced cell cycle arrest in the G0/G1 phase concentration-dependently | 71.6 | 65.1 | 54.5 | 28.3 | 34.9 | 45.4 | concentration-dependently inhibited the colony formation | – | – | – | – | – | – | – | – | – | –
O=C(O)c1ccc(-n2cc(C(=O)c3cc(Cl)cc(Cl)c3O)cn2)cc1 [CK-61] | – | – | – | – | – | – | – | – | – | potent inhibition; also recorded: potently inhibited | potent inhibition | 0.94 ± 0.58 | 1.56 ± 0.41 | 3.21 | > 50 | > 50 | > 50 | > 80 | low double-digit micromolar
Cc1cc(O)c(C(=O)c2cnn(-c3ccc(C(=O)O)cc3)c2)cc1Cl [CK-79] | – | – | – | – | – | – | – | – | – | potent inhibition; also recorded: potently inhibited | potent inhibition | 0.96 ± 0.08 | 1.39 ± 0.37 | – | 32.1 ± 6.3 | 28.1 ± 1.6 | 44 ± 6.8 | – | –
